For data set [1], the target named is T1, 5-HT2A receptor (Homo sapiens, UniProt P28223).
T1 construct: host or cells: unnamed cell lines
Briefly: Calcium mobilization assay, antagonist format, 5-HT2A. In kind it is cell-based. Conditions: @100 nM; agonist challenge at EC80. As for the experimental part: (§1) Protocol—in vitro testing at select 5-hydroxytryptamine (5-HT; serotonin) receptors was conducted.
(§2) • 1. Cell lines were expanded from freezer stocks according to standard procedures. • 2. Cells were seeded in a total volume of 20 μL into black-walled, clear-bottom, Poly-D-lysine coated 384-well microplates and incubated at 37° C. for the appropriate time prior to testing.
(§3) • 1. Assays were performed in 1× Dye Loading Buffer consisting of 1× Dye, 1× Additive A and • 2.5 mM Probenecid in HBSS/20 mM Hepes. Probenicid was prepared fresh. • 2. Cells were loaded with dye prior to testing. Media was aspirated from cells and replaced with 20 μL Dye Loading Buffer. • 3. Cells were incubated for 30-60 minutes at 37° C.
(§4) • 1. For antagonist determination, cells were pre-incubated with sample followed by agonist challenge at the EC80 concentration. • 2. Intermediate dilution of sample stocks was performed to generate 3× sample in assay buffer. • 3. After dye loading, cells were removed from the incubator and 10 μL 3× sample was added. Cells were incubated for 30 minutes at room temperature in the dark to equilibrate plate temperature. Vehicle concentration was 1%. • 4. Compound antagonist activity was measured on a FLIPR Tetra (MDS). Calcium mobilization was monitored for 2 minutes and 10 μL EC80 agonist in HBSS/20 mM Hepes was added to the cells 5 seconds into the assay.
(§5) • 1. Compound activity was analyzed using CBIS data analysis suite (ChemInnovation, CA). • 2. For agonist mode assays, percentage activity is calculated using the following formula: % Activity=100%×(mean RFU of test sample−mean RFU of vehicle control)/(mean MAX RFU control ligand −mean RFU of vehicle control). • 3. For positive allosteric mode assays, percentage modulation was calculated using the following formula: % Modulation=100%×((mean RFU of test sample−mean RFU of EC20 control)/(mean RFU of MAX control ligand −mean RFU of EC20 control)). • 4. For antagonist and negative allosteric modulation mode assays, percentage inhibition is calculated using the following formula: % Inhibition=100%×(1−(mean RFU of test sample−mean RFU of vehicle control)/(mean RFU of EC80 control−mean RFU of vehicle control)).
Compounds were evaluated as 5-HT2A antagonists at 100 nM (one hundred nanomolar), or may be evaluated at a higher concentration. For research comparative purposes, a literature compound—(R)-1-(5-methoxy-1H-indol-1-yl)-N,N-dimethylpropan-2-amine (AAZ-A-154) (Cell 2021, 184, 2779-2792.e18)—was included in the screening assays. Additionally, 5-hydroxytryptamine/serotonin (5-HT) was included in the screening assay as a positive control agonist, and Altanserin HCl was included as a 5-HT2A antagonist positive control.
A general note: Calcium assays in cells follow changes in intracellular calcium, usually with a dye or a luminescent sensor.

In data set [2] the target is T1, 5-HT2A receptor. Briefly: Calcium mobilization assay, agonist format, 5-HT2A. Format: cell-based. Conditions: % activity relative to control ligand, read-out: 5-HT2A agonist efficacy @10 µM. As for the experimental part: as §1, §2, §3
(§6) • 1. For agonist determination, cells were incubated with sample to induce response. • 2. After dye loading, cells were removed from the incubator and 10 μL HBSS/20 mM Hepes was added. 3× vehicle was included in the buffer when performing agonist dose curves to define the EC80 for subsequent antagonist assays. Cells were incubated for 30 minutes at room temperature in the dark to equilibrate plate temperature. • 3. Intermediate dilution of sample stocks was performed to generate 4× sample in assay buffer. • 4. Compound agonist activity was measured on a FLIPR Tetra (MDS). Calcium mobilization was monitored for 2 minutes and 10 μL 4× sample in HBSS/20 mM Hepes was added to the cells 5 seconds into the assay.
as §5

The nature of data set [3]: Metabolic stability in human liver microsomes. Format: in vitro ADME. Conditions: for half-life at 1 μM / microsomal CLint at 1 μM / CLint scaled at 1 μM: liver microsomes (pooled); for half-life at 1 μM: human liver microsomes 0.5 mg/mL, test compound 1.0 μM, 37° C., NADPH; for microsomal CLint at 1 μM: intrinsic clearance = 0.693/T1/2/mg microsome protein per mL, read-out: CLint(mic); for CLint scaled at 1 μM: human, scaled from CLint(mic) with 45 mg microsomal protein/g liver and 20 g liver/kg. As for the experimental part:
The test compound at 1.0 μM in singlet, or positive controls including Testosterone (CYP3A4 substrate), Propafenone (CYP2D6 substrate) or Diclofenac (CYP2C9 substrate) was incubated with the liver microsomes (Corning, Xenotech, or other credible vendor, pooled from multiple donors) at 0.5 mg/mL, respectively. The mixture was warmed up at 37° C. for 10 minutes and the reactions were initiated by the addition of a NADPH regenerating system (˜1.0 mM). The test compound incubated with the liver microsomes at 37° C. without the NADPH regenerating system served as the negative control reaction.
The reaction samples were removed at multiple time points (such as 0, 5, 15, 30, 45 and 60 minutes) and the sample without NADPH (NCF) was removed at 60 minutes. All the samples were immediately mixed with cold acetonitrile containing internal standard (IS) to stop the reaction.
Samples were analyzed by LC/MS/MS and the disappearance of test compound were assessed base on peak area ratios of analyte/IS (no standard curve). The microsomal intrinsic clearance and T1/2 values were calculated using the following equation: […]
The microsomal intrinsic clearance and T1/2 values were calculated using the following equation: […]
In these experiments the comparator compound was a suitable reference standard. In one embodiment the comparator compound was (R)-1-(5-methoxy-1H-indol-1-yl)-N,N-dimethylpropan-2-amine.
(In general: Liver microsomes are vesicles of endoplasmic reticulum, rich in cytochrome P450 enzymes.)

Another data set has as its target T2, 5-HT2C receptor (Homo sapiens, UniProt P28335).
T2 construct: host or cells: unnamed cell lines
T2 sequence (P28335 33-458): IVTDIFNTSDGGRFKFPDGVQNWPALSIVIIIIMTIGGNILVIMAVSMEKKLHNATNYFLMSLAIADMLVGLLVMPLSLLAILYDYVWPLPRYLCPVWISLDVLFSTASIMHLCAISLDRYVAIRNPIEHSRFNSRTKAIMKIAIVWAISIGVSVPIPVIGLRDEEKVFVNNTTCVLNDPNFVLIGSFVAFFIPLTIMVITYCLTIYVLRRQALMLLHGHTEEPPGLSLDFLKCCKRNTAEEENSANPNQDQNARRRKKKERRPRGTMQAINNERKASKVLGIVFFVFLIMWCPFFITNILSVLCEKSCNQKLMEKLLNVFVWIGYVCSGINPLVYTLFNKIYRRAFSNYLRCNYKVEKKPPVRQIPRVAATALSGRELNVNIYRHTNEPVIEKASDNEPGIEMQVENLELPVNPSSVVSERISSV
The data set is described as follows: Calcium mobilization assay, antagonist format, 5-HT2C. In kind it is cell-based. Conditions: for inhibition at 10 µM: agonist challenge at EC80; for antagonism of the 5-HT2C receptor: 10 μM (ten micromolar). As for the experimental part:
as §1, §2, §3, §4, §5
[…] For research comparative purposes, a literature compound—(R)-1-(5-methoxy-1H-indol-1-yl)-N,N-dimethylpropan-2-amine (AAZ-A-154) (Cell 2021, 184, 2779-2792.e18)—was included in the screening assays. Additionally, 5-hydroxytryptamine/serotonin (5-HT) was included in the screening assay as a positive control agonist, and SB242084 was used in the screening assay as a literature 5-HT2C antagonist positive control. […] Compounds 2, 3 and 93 each achieved greater than 75% antagonism of the 5-HT2C receptor, with compounds 3 and 93 achieving approximately 98% and 97% antagonism, respectively.

The next data set addresses T3, 5-HT2B receptor (Homo sapiens, UniProt P41595).
T3 construct: host or cells: unnamed cell lines
Briefly: Calcium mobilization assay, agonist format, 5-HT2B. The settings on record: % activity relative to control ligand, read-out: 5-HT2B agonist efficacy @5 µM. In kind it is cell-based. As for the experimental part: as §1, §2, §3, §6, §5

In another data set the test system is C57BL/6J mice. Briefly: Head-twitch response (HTR) in mice. The settings on record: 10 mg/kg ip, male C57BL/6J mice, 40 min post-dose; FIGS. 2 and 3. Format: in vivo, mouse. As to the method: Head-Twitch Response (HTR). The head-twitch response assay is performed as is known to those of skill in the art using both male and female C57BL/6J mice (3 per treatment). The mice are obtained and are approximately 8 weeks old at the time of the experiments. Compounds are administered via intraperitoneal injection (5 mL/kg) using 0.9% saline as the vehicle. As a positive control, 5-MeO-DMT fumarate (2:1 amine/acid) was utilized. Behavior was videotaped, later scored by two blinded observers, and the results were averaged (Pearson correlation coefficient=0.93).
24 Male C57BL/6J mice (approximately 25 g) were group housed in a stock room. Animals were maintained under a 12 h light/dark cycle, at 23° C. with humidity controlled according to Home Office regulations.
Compounds 1, 2, 4, 151, 93, AAZ literature compound and 5-MeO-DMT (all compounds supplied as free bases) were each formulated in DMSO:saline [10:90] at a concentration of 2 mg/mL to give a dose of 10 mg/kg when administered ip in a 5 mL/kg dosing volume. […]
At T=0 h, groups of 3 mice were dosed intraperitoneally with either Vehicle, Compound 1, Compound 2, Compound 4, Compound 151, Compound 93, AAZ literature compound, or 5-MeO-DMT each at 10 mg/kg. Following dosing, mice were replaced into the observation cages and head twitch behavior was monitored for 40 min after agonist dosing.

Another data set relates to 5HT2A sensor. Conditions: general statement on known hallucinogens and non-hallucinogenic congeners; cited from earlier work.

T1 sequence (P28223 whole entry): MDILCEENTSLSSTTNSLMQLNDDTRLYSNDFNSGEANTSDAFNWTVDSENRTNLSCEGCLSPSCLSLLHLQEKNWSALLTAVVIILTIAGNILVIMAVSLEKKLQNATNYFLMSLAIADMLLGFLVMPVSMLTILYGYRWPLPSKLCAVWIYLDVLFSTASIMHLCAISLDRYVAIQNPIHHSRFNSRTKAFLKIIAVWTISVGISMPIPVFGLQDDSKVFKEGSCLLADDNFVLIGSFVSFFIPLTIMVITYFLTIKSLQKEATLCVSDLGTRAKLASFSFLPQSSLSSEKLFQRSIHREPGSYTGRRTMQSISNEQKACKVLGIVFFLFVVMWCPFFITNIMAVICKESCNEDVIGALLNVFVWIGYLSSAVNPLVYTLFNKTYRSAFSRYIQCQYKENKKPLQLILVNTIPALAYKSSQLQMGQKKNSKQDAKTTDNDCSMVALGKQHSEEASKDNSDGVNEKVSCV
T3 sequence (P41595 whole entry): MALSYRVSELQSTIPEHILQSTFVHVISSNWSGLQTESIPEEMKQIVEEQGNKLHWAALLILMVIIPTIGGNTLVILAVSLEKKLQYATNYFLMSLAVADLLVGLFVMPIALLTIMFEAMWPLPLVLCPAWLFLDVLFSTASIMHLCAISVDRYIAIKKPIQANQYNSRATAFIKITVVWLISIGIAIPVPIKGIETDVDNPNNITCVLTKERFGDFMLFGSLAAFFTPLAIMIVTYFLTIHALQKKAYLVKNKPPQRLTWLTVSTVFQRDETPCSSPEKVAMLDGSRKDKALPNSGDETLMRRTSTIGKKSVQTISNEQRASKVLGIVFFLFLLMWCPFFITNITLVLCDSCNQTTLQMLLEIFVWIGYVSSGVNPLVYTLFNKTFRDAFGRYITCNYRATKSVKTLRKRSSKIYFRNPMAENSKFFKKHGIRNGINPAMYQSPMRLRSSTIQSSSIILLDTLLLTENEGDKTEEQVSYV

In general, inhibition refers to the change of the read-out against control, counted positive when it falls. Usually half-life stands for the time in which the quantity being followed falls by half. The CLint scaled is a measure of how fast metabolising enzymes remove a compound, apart from limits set by blood flow. In the case of `COc1ccc2c(ccn2C[C@@H](C)N(C)C)c1` [AAZ-A-154, (R)-1-(5-methoxy-1H-indol-1-yl)-N,N-dimethylpropan-2-amine, reference compound], on 5-HT2A receptor [1], the inhibition at 0.1 µM came out at 3.2%. For the same compound, at 5-HT2A receptor [2], the activation at 10 µM is 1%. In data set [3], this compound displayed a half-life at 1 μM of 1.42 h and a CLint scaled at 1 μM of 14.8 mL/min/kg. Moreover, the microsomal CLint at 1 μM in data set [3] (human liver microsomes) was determined as 16.4 µL/min/mg. For the same compound, the inhibition at 10 µM at 5-HT2C receptor was found to be 35%. For the same compound, on 5-HT2B receptor, the activation at 5 µM was -2.9%.
`[2H]C([2H])([2H])[C@@]([2H])(N(C)C)C([2H])([2H])n1ccc2cc(OC)ccc21` [Compound 5, (2R)-1,1,1,2,3,3-hexadeuterio-3-(5-methoxyindol-1-yl)-N,N-dimethyl-propan-2-amine]: the inhibition at 0.1 µM on 5-HT2A receptor [1] is -2.7%. In addition, on 5-HT2A receptor [2], the activation at 10 µM came to 2%. Moreover, the “difference in half-life and intrinsic clearance compared with reference compound (R)-1-(5-methoxy-1H-indol-1-yl)-N,N-dimethylpropan-2-amine” value in data set [3] (human liver microsomes, comment on Table 2) was “significant and beneficial differences in half-life and intrinsic clearance”. In data set [3], this compound came in with a half-life at 1 μM of 1.59 h and a CLint scaled at 1 μM of 13.5 mL/min/kg. Besides, the microsomal CLint at 1 μM in data set [3] (human liver microsomes) is 15 µL/min/mg. Besides, the inhibition at 10 µM at 5-HT2C receptor was 38.1%. Further, the activation at 5 µM at 5-HT2B receptor is 3%.
Take `C[C@H](Cn1ccc2c3c(ccc21)OCCC3)N(C)C` [Compound 3, (R)-1-(8,9-dihydropyrano[3,2-e]indol-3(7H)-yl)-N,N-dimethylpropan-2-amine]: the inhibition at 0.1 µM on 5-HT2A receptor [1] was -7.3%. The activation at 10 µM on 5-HT2A receptor [2] amounted to 9.7%. For the same compound, on 5-HT2C receptor, the “antagonism of the 5-HT2C receptor” value is on record as “approximately 98%” and the inhibition at 10 µM was determined as 98.1%. Also, the activation at 5 µM at 5-HT2B receptor came out at 1%.
For `CC(Cc1ncn2cc(F)ccc12)N(C)C` (racemic) [Compound 93, (R/S)-1-(6-fluoroimidazo[1,5-a]pyridin-1-yl)-N,N-dimethylpropan-2-amine] the same measures were 5.7%, 1.8%, roughly 97%, 97.1% and 2.7%.
`COc1ccc2[nH]cc(CCN(C)C)c2c1` [Compound 5-MeO-DMT]: the “head-twitch response compared to placebo” value in the data set on C57BL/6J mice was “produced significant increases in head-twitch”. Moreover, the “activation of the 5HT2A sensor assay in agonist mode” value in the data set on 5HT2A sensor is on record as “activate the 5HT2A sensor assay in agonist mode”.

The values above are taken from patent publication US20260138948A1, “N-SUBSTITUTED INDOLES AS 5-HYDROXYTRYPTAMINE (5-HT) SEROTONIN RECEPTOR AGONISTS AND ANTAGONISTS” (Terran Biosciences Inc., priority 2021, published 2026).
